# Reference: patent US20140243414A1, “PHARMACEUTICAL COMPOSITIONS OF CETP INHIBITORS” (Japan Tobacco Inc., priority 2003, published 2014)
# Where two headings read alike, the source gives them in different places.
# Assays:
# CETP [1] = target: T1, CETP (Homo sapiens, UniProt P11597); test: Food effect on CETP activity, 900 mg Compound I, Caucasian males (Example 6); assay type: in vivo; conditions: for change in vivo at 900 mg: read-out: Percent change from pre-dose in CETP activity (mean)
# T1 construct: from tissue; host or cells: blood / plasma of human subjects dosed orally with Compound I
# T1 sequence (P11597 18-493): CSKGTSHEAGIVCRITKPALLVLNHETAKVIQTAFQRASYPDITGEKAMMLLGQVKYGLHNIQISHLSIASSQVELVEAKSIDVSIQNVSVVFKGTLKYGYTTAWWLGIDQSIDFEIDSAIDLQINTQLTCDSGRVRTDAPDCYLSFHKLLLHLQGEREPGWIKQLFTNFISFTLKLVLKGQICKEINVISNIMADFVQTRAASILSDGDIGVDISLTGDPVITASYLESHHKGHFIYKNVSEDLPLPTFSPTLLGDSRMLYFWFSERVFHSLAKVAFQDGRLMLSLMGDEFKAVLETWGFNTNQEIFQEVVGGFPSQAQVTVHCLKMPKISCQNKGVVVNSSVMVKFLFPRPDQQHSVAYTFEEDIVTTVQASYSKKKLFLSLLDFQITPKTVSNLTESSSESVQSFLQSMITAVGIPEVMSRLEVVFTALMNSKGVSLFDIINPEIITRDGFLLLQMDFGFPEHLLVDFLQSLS
# Text: Administration, dosing, and sampling schedules were substantially similar to those described in Example 1.
# The procedure for determining CETP activity is described in Example 5.
# The mean changes from baseline (pre-dose) in CETP activity over time are set out in the plot of FIG. 3.
# TC, HDL-C, LDL-C = test: Lipid levels after 4 weeks daily treatment, healthy volunteers (Example 9); assay type: in vivo, human; conditions: for Decrease in TC/HDL-C ratio relative to baseline / Increase in HDL-C levels relative to baseline: 4 weeks; for Absolute change in HDL-C / Absolute change in TC / Absolute change in TC/HDL-C ratio / Absolute change in LDL-C: 4 weeks treatment, mean ± SD; for Absolute change in LDL-C: LDL-C by Friedewald formula
# Procedure: Each patient took three tablets after breakfast each day for 4 weeks. Patients either took three placebo tablets (placebo); one 300 mg tablet and two placebo tablets (low dose); two 300 mg tablets and one placebo tablet (medium dose); or three 300 mg tablets (high dose). Tablet preparation was as described as in Example 1.
# The testing period consisted of (a) a run-in period of 4 weeks, followed by (b) 4 weeks of treatment, and (c) 4 weeks of monitoring. Blood samples were drawn after an overnight fast. […] HDL-C was determined with a heparin MnCl2 precipitation reagent and LDL-C was calculated by the Friedewald formula (see, de Grooth et al., supra). CETP activity was measured as described in Example 5.
# Table 11 describes the absolute changes in the assayed properties after 4 weeks of treatment.
# CETP [2] = target: T1, CETP; test: Relative CETP activity after single oral doses, Japanese males (Example 7); assay type: in vivo; conditions: for response vs control in vivo at 100 mg: 100 mg with food; for response vs control in vivo at 100 mg / response vs control in vivo at 300 mg / response vs control in vivo at 600 mg / response vs control in vivo at 900 mg / response vs control in vivo at 1200 mg / response vs control in vivo at 1500 mg / response vs control in vivo at 1800 mg: read-out: Percent CETP activity relative to pre-dose; for response vs control in vivo at 300 mg: 300 mg with food; for response vs control in vivo at 600 mg: 600 mg with food; for response vs control in vivo at 900 mg: 900 mg with food; for response vs control in vivo at 1200 mg: 1200 mg with food; for response vs control in vivo at 1500 mg: 1500 mg with food; for response vs control in vivo at 1800 mg: 1800 mg with food
# Procedure: Administration, dosing, and sampling schedules were commensurate with those described in Example 1. The tablets were prepared as described in Example 1.
# Relative CETP activities (calculated as a percentage of baseline CETP activity) and standard deviations (SD) were measured, and the resulting data is summarized in Table 8.
# CETP [3] = target: T1, CETP; test: Food effect on relative CETP activity, 600 mg Compound I, Japanese males (Example 8); assay type: in vivo
# Procedure: Administration, dosing, and sampling schedules were commensurate with those described in Examples 1 and 6. […] Patients were administered two tablets of 300 mg each. The tablets were prepared as described in Example 1.
# Relative CETP activities (calculated as a percentage of baseline CETP activity) and standard deviations (SD) were measured, and the resulting data is summarized in Table 9.
smiles,measurement,setting,value
"CCC(CC)CC1(C(=O)Nc2ccccc2SC(=O)C(C)C)CCCCC1 [Compound I, S-[2-([[1-(2-ethylbutyl)cyclohexyl]carbonyl]amino)phenyl]2-methylpropanethioate]",change in vivo at 900 mg,"CETP [1]; 1 h, fasted, 1 h",1%
same,change in vivo at 900 mg,"CETP [1]; 1 h, fed, 1 h",-1%
same,change in vivo at 900 mg,"CETP [1]; 2 h, fasted, 2 h",2%
same,change in vivo at 900 mg,"CETP [1]; 2 h, fed, 2 h",-16%
same,change in vivo at 900 mg,"CETP [1]; 4 h, fasted, 4 h",-4%
same,change in vivo at 900 mg,"CETP [1]; 4 h, fed, 4 h",-44%
same,change in vivo at 900 mg,"CETP [1]; 6 h, fasted, 6 h",-10%
same,change in vivo at 900 mg,"CETP [1]; 6 h, fed, 6 h",-59%
same,change in vivo at 900 mg,"CETP [1]; 8 h, fasted, 8 h",-15%
same,change in vivo at 900 mg,"CETP [1]; 8 h, fed, 8 h",-58%
same,change in vivo at 900 mg,"CETP [1]; 24 h, fasted, 24 h",-10%
same,change in vivo at 900 mg,"CETP [1]; 24 h, fed, 24 h",-34%
same,"CETP activity, Post-study (all subjects)","CETP [1]; all subjects (fed and fasted periods), post-study",96
same,Decrease in TC/HDL-C ratio relative to baseline,"TC, HDL-C, LDL-C; 300 mg per day",about 13%
same,Increase in HDL-C levels relative to baseline,"TC, HDL-C, LDL-C; 300 mg per day",about 15%
same,Absolute change in HDL-C,"TC, HDL-C, LDL-C; 300 mg per day",0.18 ± 0.15 mmol/L
same,Absolute change in TC,"TC, HDL-C, LDL-C; 300 mg per day",−0.1 ± 0.5^ mmol/L
same,Absolute change in TC/HDL-C ratio,"TC, HDL-C, LDL-C; 300 mg per day",−0.7 ± 0.8
same,Absolute change in LDL-C,"TC, HDL-C, LDL-C; 300 mg per day",−0.2 ± 0.5^ mmol/L
same,Decrease in TC/HDL-C ratio relative to baseline,"TC, HDL-C, LDL-C; 600 mg per day",about 18%
same,Increase in HDL-C levels relative to baseline,"TC, HDL-C, LDL-C; 600 mg per day",about 26%
same,Absolute change in HDL-C,"TC, HDL-C, LDL-C; 600 mg per day",0.32 ± 0.22 mmol/L
same,Absolute change in TC,"TC, HDL-C, LDL-C; 600 mg per day",0.0 ± 0.6 mmol/L
same,Absolute change in TC/HDL-C ratio,"TC, HDL-C, LDL-C; 600 mg per day",−0.9 ± 0.8
same,Absolute change in LDL-C,"TC, HDL-C, LDL-C; 600 mg per day",−0.2 ± 0.6^ mmol/L
same,Decrease in TC/HDL-C ratio relative to baseline,"TC, HDL-C, LDL-C; 900 mg per day",about 23%
same,Increase in HDL-C levels relative to baseline,"TC, HDL-C, LDL-C; 900 mg per day",about 34%
same,Absolute change in HDL-C,"TC, HDL-C, LDL-C; 900 mg per day",0.40 ± 0.29 mmol/L
same,Absolute change in TC,"TC, HDL-C, LDL-C; 900 mg per day",0.0 ± 0.6 mmol/L
same,Absolute change in TC/HDL-C ratio,"TC, HDL-C, LDL-C; 900 mg per day",−1.2 ± 0.7
same,Absolute change in LDL-C,"TC, HDL-C, LDL-C; 900 mg per day",-0.3 ± 0.6 mmol/L
same,response vs control in vivo at 100 mg,CETP [2]; post-study,99.2%
same,response vs control in vivo at 300 mg,CETP [2]; post-study,96.1%
same,Decrease in CETP activity relative to pre-dose,"CETP [2]; 300 mg, 6 hours after administration",about 19.5%
same,response vs control in vivo at 600 mg,CETP [2]; post-study,103%
same,Decrease in CETP activity relative to pre-dose,"CETP [2]; 600 mg, 6 hours after administration",about 62%
same,response vs control in vivo at 900 mg,CETP [2]; post-study,95.1%
same,Decrease in CETP activity relative to pre-dose,"CETP [2]; 900 mg, 4 hours after administration",about 76%
same,response vs control in vivo at 1200 mg,CETP [2]; post-study,95.2%
same,response vs control in vivo at 1500 mg,CETP [2]; post-study,96.9%
same,response vs control in vivo at 1800 mg,CETP [2]; post-study,93%
same,response vs control in vivo at 100 mg,"CETP [2]; 1 h, 1 h",96.2%
same,response vs control in vivo at 300 mg,"CETP [2]; 1 h, 1 h",100%
same,response vs control in vivo at 600 mg,"CETP [2]; 1 h, 1 h",100%
same,response vs control in vivo at 900 mg,"CETP [2]; 1 h, 1 h",100%
same,response vs control in vivo at 1200 mg,"CETP [2]; 1 h, 1 h",94.2%
same,response vs control in vivo at 1500 mg,"CETP [2]; 1 h, 1 h",101%
same,response vs control in vivo at 1800 mg,"CETP [2]; 1 h, 1 h",85.3%
same,response vs control in vivo at 100 mg,"CETP [2]; 2 h, 2 h",92%
same,response vs control in vivo at 300 mg,"CETP [2]; 2 h, 2 h",90.7%
same,response vs control in vivo at 600 mg,"CETP [2]; 2 h, 2 h",87.8%
same,response vs control in vivo at 900 mg,"CETP [2]; 2 h, 2 h",52.1%
same,response vs control in vivo at 1200 mg,"CETP [2]; 2 h, 2 h",54%
same,response vs control in vivo at 1500 mg,"CETP [2]; 2 h, 2 h",85.7%
same,response vs control in vivo at 1800 mg,"CETP [2]; 2 h, 2 h",15.6%
same,response vs control in vivo at 100 mg,"CETP [2]; 4 h, 4 h",93.2%
same,response vs control in vivo at 300 mg,"CETP [2]; 4 h, 4 h",83.1%
same,response vs control in vivo at 600 mg,"CETP [2]; 4 h, 4 h",52.6%
same,response vs control in vivo at 900 mg,"CETP [2]; 4 h, 4 h",~24%
same,response vs control in vivo at 1200 mg,"CETP [2]; 4 h, 4 h",12.1%
same,response vs control in vivo at 1500 mg,"CETP [2]; 4 h, 4 h",13.3%
same,response vs control in vivo at 1800 mg,"CETP [2]; 4 h, 4 h",6%
same,response vs control in vivo at 100 mg,"CETP [2]; 6 h, 6 h",90.4%
same,response vs control in vivo at 300 mg,"CETP [2]; 6 h, 6 h",~80.5%
same,response vs control in vivo at 600 mg,"CETP [2]; 6 h, 6 h",~38%
same,response vs control in vivo at 900 mg,"CETP [2]; 6 h, 6 h",24.1%
same,response vs control in vivo at 1200 mg,"CETP [2]; 6 h, 6 h",10.5%
same,response vs control in vivo at 1500 mg,"CETP [2]; 6 h, 6 h",10.6%
same,response vs control in vivo at 1800 mg,"CETP [2]; 6 h, 6 h",8.4%
same,response vs control in vivo at 100 mg,"CETP [2]; 8 h, 8 h",90.4%
same,response vs control in vivo at 300 mg,"CETP [2]; 8 h, 8 h",80.6%
same,response vs control in vivo at 600 mg,"CETP [2]; 8 h, 8 h",39.1%
same,response vs control in vivo at 900 mg,"CETP [2]; 8 h, 8 h",29.8%
same,response vs control in vivo at 1200 mg,"CETP [2]; 8 h, 8 h",14.7%
same,response vs control in vivo at 1500 mg,"CETP [2]; 8 h, 8 h",15.4%
same,response vs control in vivo at 1800 mg,"CETP [2]; 8 h, 8 h",12.2%
same,response vs control in vivo at 100 mg,"CETP [2]; 24 h, 24 h",99.2%
same,response vs control in vivo at 300 mg,"CETP [2]; 24 h, 24 h",88.8%
same,response vs control in vivo at 600 mg,"CETP [2]; 24 h, 24 h",65.5%
same,response vs control in vivo at 900 mg,"CETP [2]; 24 h, 24 h",60.5%
same,response vs control in vivo at 1200 mg,"CETP [2]; 24 h, 24 h",47.6%
same,response vs control in vivo at 1500 mg,"CETP [2]; 24 h, 24 h",53.7%
same,response vs control in vivo at 1800 mg,"CETP [2]; 24 h, 24 h",49.5%
same,CETP activity relative to pre-dose,"CETP [3]; fasted, 1 h",102.1%
same,CETP activity relative to pre-dose,"CETP [3]; fasted, 2 h",99.6%
same,CETP activity relative to pre-dose,"CETP [3]; fasted, 4 h",96.5%
same,CETP activity relative to pre-dose,"CETP [3]; fasted, 6 h",89.5%
same,CETP activity relative to pre-dose,"CETP [3]; fasted, 8 h",87.8%
same,CETP activity relative to pre-dose,"CETP [3]; fasted, 24 h",92.6%
same,CETP activity relative to pre-dose,"CETP [3]; fasted, post-study",100.4%
same,CETP activity relative to pre-dose,"CETP [3]; fed, 1 h",100.4%
same,CETP activity relative to pre-dose,"CETP [3]; fed, 2 h",87.8%
same,CETP activity relative to pre-dose,"CETP [3]; fed, 4 h",52.6%
same,CETP activity relative to pre-dose,"CETP [3]; fed, 6 h",37.6%
same,CETP activity relative to pre-dose,"CETP [3]; fed, 8 h",39.1%
same,CETP activity relative to pre-dose,"CETP [3]; fed, 24 h",65.5%
same,CETP activity relative to pre-dose,"CETP [3]; fed, post-study",102.9%
